Laboratory results published in patent US4863898A, “Amino acid chelated compositions for delivery to specific biological tissue sites” (priority 1986, dated 1989).
Read-outs that look alike come from different tables or passages of the source. Blank lines part the entries; values can stand above or below the compound they belong to.

Columns and labels:
[1] = set-up: species or system rats; conditions: rat, in vivo
Excerpt: Leucine was used as the ligand and zinc as the metal. Composition A is therefore a mixture, or at best a complex consisting of one mole of leucine (mole weight 131.17) and one more of zinc chloride. […] Composition B consisted of two moles of leucine admixed with one mole of zinc chloride to form a mixture. […] Composition A contained leucine equivalent to 10 microliters of 0.76M. leucine and was adjusted to pH 9 with 20 microliters of 0.05 N NaOH. Composition B contained leucine equivalent to 20 microliters of 0.76M. leucine containing 20 microliters distilled water in lieu of pH adjustment. The pH of this solution was about 3. Composition C contained the same ingredients as Composition B except in chelated form and the pH was adjusted to 9 with 20 microliters of 0.13M Na2 CO3. The procedure of Example lI was fo lowed using three rats in each group. Upon sacrificing, blood was drawn and certain tissues excised to determine the amount of radioactive zinc which had migrated to the blood and tissues two hours post injection.

[2] = radioactive zinc in male sex tissues after intravenous dosage (Example II); conditions: rats, intravenous 0.06 mg zinc, 24 hours post treatment, group average
Experimental: Three groups of rats, six in each group, weighing 250 gms±10 gms. were given an intravenous dosage, of 0.06 mg zinc containing 10 microcuries of radioactive zinc.
Each rat was sacrificed 24 hours post treatment and the testes, epididymis, and seminal visicle of each were exposed, excised and a determination was made of the amount of radioactive zinc in each.

[3] = radioactive zinc in tissues after injection into the jugular vein (Example IV); assay type: in vivo; conditions: rats, two hours post injection, group mean
Experimental: The method of Example III was again utilized except that the manganese was replaced by zinc. […] The same dosage as in Example III was administered. Only six rats were utilized for this experiment, three in each group, and they were sacrificed two hours post injection into the jugular vein. Six tissues, i.e. brain, skeletal muscle, liver, hypothalamus, pituitary and uterus were analyzed for radioactive zinc with the following mean results for each group reported in terms of cc/min/mg of tissue.

[4] = stability constant of amino acid chelate; assay type: physicochemical
Excerpt: The determination of stability constants of amino acid chelates is well documented in U.S. Pat. No. 4,167,564 and the means by which amino acid chelates may be formulated to provide optimal stability constants within the required ranges are disclosed in U.S. Pat. Nos. 4,176,564 and 4,172,072.

[5] = female rats, intravenous 0.06 mg Ca, after two hours
Experimental: Six female rats, weighing 250 gms.±10 gms., were divided into two groups. All rats were anethetized with 0.15 mls sodium phenobarbital USP. […] To the other three, the same amount of calcium was administered in the form a calcium chloride.
After two hours, all of he rats were sacrificed and the hypothalamus was removed and read for radioactivity.

radioactive zinc in Blood [1]: 1.64 cc/min/mg
radioactive zinc in Heart [1]: 6.32 cc/min/mg
radioactive zinc in Kidney [1]: 8.55 cc/min/mg
radioactive zinc in Liver [1]: 8.65 cc/min/mg
radioactive zinc in Muscle [1]: 3.88 cc/min/mg
radioactive zinc, Total of blood and tissues [1]: 31.45 cc/min/mg
Compound: CC(C)C[C@H](N)C(=O)[O-].CC(C)C[C@H](N)C(=O)[O-].[Zn+2] [Comp. C, zinc-leucine amino acid chelate]

Compound: [Cl-].[Cl-].[Zn+2] [Zinc Chloride, zinc chloride]
radioactive zinc in Epididymis [2]: Negligible
radioactive zinc in Seminal Vesicle [2]: Negligible
radioactive zinc in Testes [2]: Negligible
radioactive zinc in Brain [3]: 5.1 cc/min/mg
radioactive zinc in Hypothalamus [3]: 3.0 cc/min/mg
radioactive zinc in Liver [3]: 94.2 cc/min/mg
radioactive zinc in Pituitary [3]: 17.0 cc/min/mg
radioactive zinc in Skeletal Muscle [3]: 5.2 cc/min/mg
radioactive zinc in Uterus [3]: 14.0 cc/min/mg

stability constant [4]: 10^7
Compound: NCC(=O)[O-].NCC(=O)[O-].[Zn+2] [GROUP II, zinc-glycine chelate]

Compound: [Ca+2].[Cl-].[Cl-] [inorganic calcium, calcium chloride]
radioactivity in hypothalamus, mean corrected counts per minute per milligram of tissue [5]: 67.1±8.4 cc/min/mg

Compound: zinc-arginine chelate [GROUP I]
stability constant [4]: 10^7
